Source: patent US11377442B2, “Small molecule agonists and antagonists of NR2F6 activity” (ZANDER THERAPEUTICS, INC., priority 2016, dated 2022)
Like-named read-outs stand apart in the source and are kept apart here. One block for each molecule: values may come before it.

Key:
Format in all cases: cell-based
[1] = biological target: T1, NR2F6 (Homo sapiens, UniProt P10588); test: NR2F6 agonist screening, Firefly signal cmpd/DMSO
T1 construct: expressed in transfected cells; also transient transfection
T1 sequence (P10588 1-404): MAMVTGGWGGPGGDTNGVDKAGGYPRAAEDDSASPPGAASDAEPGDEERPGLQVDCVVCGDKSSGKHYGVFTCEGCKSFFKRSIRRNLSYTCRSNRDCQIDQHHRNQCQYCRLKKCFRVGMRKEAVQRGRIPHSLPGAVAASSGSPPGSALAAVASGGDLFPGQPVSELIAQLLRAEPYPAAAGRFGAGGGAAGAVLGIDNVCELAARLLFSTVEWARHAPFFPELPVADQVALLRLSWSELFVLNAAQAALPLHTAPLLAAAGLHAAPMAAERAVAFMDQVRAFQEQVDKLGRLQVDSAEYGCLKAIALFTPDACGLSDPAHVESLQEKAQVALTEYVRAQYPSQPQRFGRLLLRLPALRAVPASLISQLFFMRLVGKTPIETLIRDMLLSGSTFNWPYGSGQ

[2] = tested on: Renilla; test: Renilla signal in NR2F6 agonist screening, cmpd/DMSO; settings: Renilla, F4
[3] = tested on: HEK293 pGL4; test: Firefly_pGL signal, cmpd/DMSO (pGL4 control cells); settings: Homo sapiens
[4] = biological target: T2, NR2F6 LBD (Homo sapiens, UniProt P10588); test: NR2F6 LBD transient transfection; settings: LBD
T2 construct: expressed in transfected cells
T2 sequence (P10588 165-393 limits assumed): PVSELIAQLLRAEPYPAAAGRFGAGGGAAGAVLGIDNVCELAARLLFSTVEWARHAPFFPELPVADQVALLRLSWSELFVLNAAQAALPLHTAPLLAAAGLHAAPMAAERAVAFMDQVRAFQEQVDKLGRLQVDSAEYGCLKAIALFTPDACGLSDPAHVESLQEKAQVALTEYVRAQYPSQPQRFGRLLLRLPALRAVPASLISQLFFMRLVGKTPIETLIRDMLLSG
Outline: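 LBD-transfected cells treated at 40, 10, 2 and 0.5 μM (4 replicates); cytotoxicity measured in parallel, normalized to DMSO (0%) and zero signal (100%). Higher concentrations excluded where signal loss reflected toxicity.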

[5] = read-out: Renilla, F4, cmpd/DMSO (mean)
[6] = 1% FBS, read-out: Renilla, F4, 1% FBS, cmpd/DMSO (mean)
[7] = 10% FBS, read-out: Renilla, F4, 10% FBS, cmpd/DMSO (mean)
[8] = HEK293, 0.5 uM, pGL4, read-out: Firefly pGL4, cmpd/DMSO (mean)
[9] = HEK293, 2 uM, pGL4, read-out: Firefly pGL4, cmpd/DMSO (mean)
[10] = HEK293, 10 uM, pGL4, read-out: Firefly pGL4, cmpd/DMSO (mean)
[11] = HEK293, 40 uM, pGL4, read-out: Firefly pGL4, cmpd/DMSO (mean)
[12] = HEK293, pGL4, 1% FBS, 0.5 uM, read-out: Firefly, pGL4, 1% FBS, cmpd/DMSO (mean)
[13] = HEK293, pGL4, 1% FBS, 2 uM, read-out: Firefly, pGL4, 1% FBS, cmpd/DMSO (mean)
[14] = HEK293, pGL4, 1% FBS, 10 uM, read-out: Firefly, pGL4, 1% FBS, cmpd/DMSO (mean)
[15] = HEK293, pGL4, 1% FBS, 40 uM, read-out: Firefly, pGL4, 1% FBS, cmpd/DMSO (mean)
[16] = HEK293, pGL4, 10% FBS, 0.5 uM, read-out: Firefly, pGL4, 10% FBS, cmpd/DMSO (mean)
[17] = HEK293, pGL4, 10% FBS, 2 uM, read-out: Firefly, pGL4, 10% FBS, cmpd/DMSO (mean)
[18] = HEK293, pGL4, 10% FBS, 10 uM, read-out: Firefly, pGL4, 10% FBS, cmpd/DMSO (mean)
[19] = HEK293, pGL4, 10% FBS, 40 uM, read-out: Firefly, pGL4, 10% FBS, cmpd/DMSO (mean)

Firefly F4, cmpd/DMSO (mean) ([1]; 0.5 uM): 1.1
Firefly F4, cmpd/DMSO (mean) ([1]; 2 uM): 2.2
Firefly F4, cmpd/DMSO (mean) ([1]; 10 uM): 4.7
Firefly F4, cmpd/DMSO (mean) ([1]; 40 uM): 0.5
F4, Firefly/Renilla for S/B(F4) > 3 ([1]; 1% FBS, 10 uM): 3.4
Firefly, F4/pGL4 for S/B(F4) > 3 ([1]; 1% FBS, 10 uM): 3.2
F4, Firefly/Renilla for S/B(F4) > 3 ([1]; 10% FBS, 10 uM): 2.3
Firefly, F4/pGL4 for S/B(F4) > 3 ([1]; 10% FBS, 10 uM): 1.9
Firefly, F4, 1% FBS, cmpd/DMSO (mean) ([1]; 1% FBS, 0.5 uM): 0.9
Firefly, F4, 1% FBS, cmpd/DMSO (mean) ([1]; 1% FBS, 2 uM): 2.1
Firefly, F4, 1% FBS, cmpd/DMSO (mean) ([1]; 1% FBS, 10 uM): 5.9
Firefly, F4, 1% FBS, cmpd/DMSO (mean) ([1]; 1% FBS, 40 uM): 0.1
Firefly, F4, 10% FBS, cmpd/DMSO (mean) ([1]; 10% FBS, 0.5 uM): 0.9
Firefly, F4, 10% FBS, cmpd/DMSO (mean) ([1]; 10% FBS, 2 uM): 1.2
Firefly, F4, 10% FBS, cmpd/DMSO (mean) ([1]; 10% FBS, 10 uM): 4.1
Firefly, F4, 10% FBS, cmpd/DMSO (mean) ([1]; 10% FBS, 40 uM): 2.9
Firefly LBD, cmpd/DMSO (mean) ([4]; 0.5 uM): 1.1
Firefly LBD, cmpd/DMSO (mean) ([4]; 2 uM): 2.1
Firefly LBD, cmpd/DMSO (mean) ([4]; 10 uM): 4.2
Firefly LBD, cmpd/DMSO (mean) ([4]; 40 uM): 0.2
SMILES: CCCN[C@H]1CS(=O)(=O)C[C@@H]1S(=O)(=O)c1ccc(Cl)cc1 [Compound D117]
fold induction at 0.5 µM [2, 5]: 1
fold induction at 2 µM [2, 5]: 1.3
fold induction at 10 µM [2, 5]: 1.7
fold induction at 40 µM [2, 5]: 0.4
fold induction at 0.5 µM [2, 6]: 1
fold induction at 2 µM [2, 6]: 1.4
fold induction at 10 µM [2, 6]: 1.7
fold induction at 40 µM [2, 6]: 0.8
fold induction at 0.5 µM [2, 7]: 1
fold induction at 2 µM [2, 7]: 1
fold induction at 10 µM [2, 7]: 1.8
fold induction at 40 µM [2, 7]: 2.4
fold induction at 0.5 µM [3, 8]: 1
fold induction at 2 µM [3, 9]: 1.4
fold induction at 10 µM [3, 10]: 4.6
fold induction at 40 µM [3, 11]: 0.3
fold induction at 0.5 µM [3, 12]: 1
fold induction at 2 µM [3, 13]: 1.4
fold induction at 10 µM [3, 14]: 1.9
fold induction at 40 µM [3, 15]: 0.6
fold induction at 0.5 µM [3, 16]: 1.1
fold induction at 2 µM [3, 17]: 1.6
fold induction at 10 µM [3, 18]: 2.2
fold induction at 40 µM [3, 19]: 1.2

Firefly F4, cmpd/DMSO (mean) ([1]; 0.5 uM): 1.0
Firefly F4, cmpd/DMSO (mean) ([1]; 2 uM): 1.8
Firefly F4, cmpd/DMSO (mean) ([1]; 10 uM): 4.5
Firefly F4, cmpd/DMSO (mean) ([1]; 40 uM): 2.3
F4, Firefly/Renilla for S/B(F4) > 3 ([1]; 1% FBS, 10 uM): 2.0
Firefly, F4/pGL4 for S/B(F4) > 3 ([1]; 1% FBS, 10 uM): 1.6
F4, Firefly/Renilla for S/B(F4) > 3 ([1]; 10% FBS, 40 uM): 3.0
Firefly, F4/pGL4 for S/B(F4) > 3 ([1]; 10% FBS, 40 uM): 2.1
Firefly, F4, 1% FBS, cmpd/DMSO (mean) ([1]; 1% FBS, 0.5 uM): 0.7
Firefly, F4, 1% FBS, cmpd/DMSO (mean) ([1]; 1% FBS, 2 uM): 1.5
Firefly, F4, 1% FBS, cmpd/DMSO (mean) ([1]; 1% FBS, 10 uM): 3.1
Firefly, F4, 1% FBS, cmpd/DMSO (mean) ([1]; 1% FBS, 40 uM): 0.6
Firefly, F4, 10% FBS, cmpd/DMSO (mean) ([1]; 10% FBS, 0.5 uM): 1.4
Firefly, F4, 10% FBS, cmpd/DMSO (mean) ([1]; 10% FBS, 2 uM): 1.0
Firefly, F4, 10% FBS, cmpd/DMSO (mean) ([1]; 10% FBS, 10 uM): 2.9
Firefly, F4, 10% FBS, cmpd/DMSO (mean) ([1]; 10% FBS, 40 uM): 8.3
Firefly LBD, cmpd/DMSO (mean) ([4]; 0.5 uM): 1.6
Firefly LBD, cmpd/DMSO (mean) ([4]; 2 uM): 1.5
Firefly LBD, cmpd/DMSO (mean) ([4]; 10 uM): 2.9
Firefly LBD, cmpd/DMSO (mean) ([4]; 40 uM): 2.1
SMILES: COCCCN[C@H]1CS(=O)(=O)C[C@@H]1S(=O)(=O)c1ccc(Cl)cc1 [Compound D126]
fold induction at 0.5 µM [2, 5]: 1.1
fold induction at 2 µM [2, 5]: 1.2
fold induction at 10 µM [2, 5]: 1.6
fold induction at 40 µM [2, 5]: 1.6
fold induction at 0.5 µM [2, 6]: 1.2
fold induction at 2 µM [2, 6]: 1.2
fold induction at 10 µM [2, 6]: 1.5
fold induction at 40 µM [2, 6]: 1.8
fold induction at 0.5 µM [2, 7]: 1
fold induction at 2 µM [2, 7]: 1.1
fold induction at 10 µM [2, 7]: 1.7
fold induction at 40 µM [2, 7]: 2.8
fold induction at 0.5 µM [3, 8]: 1.2
fold induction at 2 µM [3, 9]: 1.2
fold induction at 10 µM [3, 10]: 3
fold induction at 40 µM [3, 11]: 0.8
fold induction at 0.5 µM [3, 12]: 1.4
fold induction at 2 µM [3, 13]: 1.8
fold induction at 10 µM [3, 14]: 2
fold induction at 40 µM [3, 15]: 1.6
fold induction at 0.5 µM [3, 16]: 1.1
fold induction at 2 µM [3, 17]: 1.1
fold induction at 10 µM [3, 18]: 1.8
fold induction at 40 µM [3, 19]: 3.9
